Experimental data as given in US8853274B1, “Compositions and methods for targeting glioblastomas cells” (Vanderbilt University, priority 2011, dated 2014).

Experiments:
Akt = assay: Immunoblot of Akt phosphorylation in T4302 CD133+ cells; type: cell-based, human; details: 200 nM, ±radiation, 2 days
Experimental: (A) T4302 CD133+ cells were treated with 200 nM RO4929097 (GSI), and irradiated 4 hours later. Cells were cultured for two days and lysed for immunoblotting. (B) T4302 CD133+ cells were treated with 200 nM GSI or FTI±radiation. Cells were lysed 2 days after treatment. (C) T4302 CD133+ cells were treated with 200 nM GSI±FTI for 24 hours, and left under normoxia or in 2% O2 for 16 hours before being lysed for immunoblotting.

Ras = assay: Active Ras pull-down assay in T4302 CD133+ cells; type: cell-based, human; details: 200 nM; after radiation exposure
Experimental: (A) T4302 CD133+ cells were infected with NICD2-lentivirus and treated with 2 μM DAPT±3 Gy radiation. Cells were collected at 24 or 48 hours after treatment. Protein levels of phospho-s473 Akt, total Akt and actin were blotted. (B) Control CD133+ cells or NICD2-expressing cells were pre-treated with 10 μM PI3K inhibitor (LY294002), or 50 μM Akt inhibitor (SH-6) for 4 hours prior to radiation. Relative caspase 3/7 activity was determined at 48 hours after radiation as described in FIG. 3C. (C) T4302 CD133+ cells were treated with 200 nM RO4929097 (GSI)±3 Gy. Active Ras levels were determined by a Ras Pull Down Assay kit using a pan-Ras antibody (Pierce). (D, E) T4302 cells were infected with H-Ras V12-lentivirus. Cells were treated with 200 nM RO4929097 (GSI)±3 Gy. Growth of cells was determined at day 5 after treatment (CellTiter-Glo assay, Promega). Relative caspase 3/7 activity was determined at 48 hours after treatment. […] Equal amounts of protein were resolved by SDS-PAGE and analyzed by immunoblotting with indicated antibodies. *: p<0.05 by Student's t-test.
Potential mechanisms that mediate Notch-dependent Akt activation were examined next. […] Using an active Ras pull-down assay kit (Pierce), the activation status of Ras signaling can be determined as the amount of Ras-GTP co-purified with a GST-tagged Ras-binding domain of c-Raf. […]

CD133+ GBM stem cells = assay: Growth inhibition within 5 days, panel of glioblastoma xenograft samples; type: cell-based, human; details: 5-day period; in combination with 3 Gy radiation
Experimental: CD133+ cells were derived from multiple glioblastoma xenograft samples as indicated. The growth inhibitory effects by GSI and/or FTIs were determined as described in FIG. 5.
Therefore, effective killing of GBM stem cells may delay or even prevent tumor recurrence. […] In combination with radiation, GSIs or FTIs alone reduced cell numbers by ˜75%.

[1] = test system: intracranial T4302 tumors; assay: Orthotopic GBM model, survival and tumor burden; type: in vivo, Athymic nude mice
Experimental: (A, B) T4302 CD133+ cells were treated with 100 nM GSI±FTI for 48 hours and lysed in RIPA buffer. Mice bearing intracranial T4302 tumors were orally treated with 30 mg/kg/day GSI once a day (q.d.)±100 mg/kg/day FTI twice a day (b.i.d.) for 7 days. Brains were resected and homogenized in RIPA buffer. All lysates were blotted with an antibody specific to prelamin A. (B) Additional brains were fixed and resected for IHC staining for cleaved Notch1. (C) T4302 CD133+ cells were infected with lentivirus expressing firefly luciferase and selected with puromycin for two days. Athymic nude mice were intracranially implanted with 5,000 cells, maintained for 10 days, and treated with GSI±FTI for 20 days as described above. In a separated experiment, animals were treated by the same protocol, except they were given 2 doses of 4 Gy X-ray irradiation on day 11 and day 12, 4 hours after drug administration. These mice were on drugs for 30 days. The median survival was calculated by the GraphPad Prism 5 software. (D) Animals in the unirradiated experiment were tracked for their tumor progression by bioluminescence imaging. The Y axis is set in a log scale. (E,F) The survival curves of these two experiments are shown.
Mice were first anesthetized using an isoflurane inhalation system and maintained on the nose cone during the procedure. 5,000 CD 133+ GSC cells suspended in 10 μl PBS were implanted into the right cerebrum with 30 gauge needles. Animals were maintained for 10 days to allow tumor establishment. Before treatment, any mouse showing distress or neurological signs (e.g. lethargy, hemiparesis, ataxia, seizures) would be euthanized. The remaining mice will be randomized to treatment groups just prior to treatment. […]
Mice were weighted and visually inspected daily once treatments begin. Tumor development was monitored by bioluminescence imaging every week. […] The primary readout of the in vivo tests is the median survival calculated by the Kaplan-Meier estimator using the GraphPad Prism5 software. Drug efficacy was also be assessed by tumor sizes estimated by bioluminescence imaging.

CC(C)(C(=O)NCC(F)(F)C(F)(F)F)C(=O)N[C@@H]1C(=O)Nc2ccccc2-c2ccccc21 [RO4929097]
Akt activity (phosphorylation at serine 473 and threonine 308) (Akt): stronger Akt inhibition in irradiated cells than in unirradiated cells | active Ras levels (Ras): decreased active Ras levels | growth inhibition / reduction of cell numbers (CD133+ GBM stem cells): ~75% | survival benefit, in words ([1]; unirradiated, 20 days oral treatment): did not produce significant benefits | survival benefit, in words ([1]; with 2 doses of 4 Gy local X-ray, 30 days oral treatment): some modest effects | mice free of tumor burden / sustained control of orthotopic GBM ([1]; with radiation, ~day 80): 1 out of 8
